pIC50, pKi: −log10 of the molar value. “And” between values parts separate entries of the source, which are not always exact repeats. Identical values can stand only once. Like-named read-outs stand apart in the source and are kept apart here.
Tests used:
HIV-1 protease = target: T1, HIV-1 protease (Human immunodeficiency virus type 1 group M subtype B, UniProt P04585); experiment: HIV-1 protease enzyme-inhibitory assay (Toth and Marshall); type: biochemical; details: for Ki (nM) / pKi: HIV-1 protease inhibitory activity
T1 construct: catalytically active dimeric HIV-1 protease
Experimental: (§1) The ability of the nilotinib subunit, pyridinyl-pyrimidinyl amino benzamides to serve as P2 ligands in the S2 subsite of HIV-1 protease was investigated. The HIV-1 protease inhibitory activity of these compounds was evaluated in an enzyme-inhibitory assay reported by Toth and Marshall. […] We also determined the antiviral activity of these inhibitors in MT-2 human-T-lymphoid cells exposed to HIVLAI. […] We then examined a pyridyl thiazole heterocycle in place of the pyridyl pyrimidinyl scaffold in compounds 5a-d.

HIVLAI = experiment: antiviral activity in MT-2 human-T-lymphoid cells exposed to HIVLAI; type: cell-based, HIV-1
Experimental: as §1

[1] = antiviral, MT-2 cells exposed to HIVLAI, Table 1 and text
[2] = Human immunodeficiency virus 1, MT2, antiviral, MT-2 cells exposed to HIVLAI, Table 1 and text, read-out: IC50
[3] = Human immunodeficiency virus 1, MT2, antiviral, MT-2 cells exposed to HIVLAI, Table 2, read-out: IC50

Row | SMILES | pKi (HIV-1 protease) | pIC50 (HIVLAI; [2]) | pIC50 (HIVLAI; [3]) | further results
1 | Cc1ccc(C(=O)N[C@@H](Cc2ccccc2)[C@H](O)CN(CC(C)C)S(=O)(=O)c2ccc3nc(NC4CC4)sc3c2)cc1Nc1cc(-c2cccnc2)ncn1 | – | – | – | Ki (nM) (HIV-1 protease): Low nM; IC50 (nM) (HIVLAI; [1]): Low nM
2 | COc1ccc(S(=O)(=O)N(CC(C)C)C[C@@H](O)[C@H](Cc2ccccc2)NC(=O)c2cccc(Nc3nc(-c4cccnc4)cs3)c2)cc1 | – | – | – | Ki (nM) (HIV-1 protease): Low nM; IC50 (nM) (HIVLAI; [1]): Low nM
3 | CC(C)CN(C[C@@H](O)[C@H](Cc1ccccc1)NC(=O)c1cccc(Nc2nc(-c3cccnc3)cs2)c1)S(=O)(=O)c1ccc2nc(NC3CC3)sc2c1 | – | – | – | Ki (nM) (HIV-1 protease): Low nM; IC50 (nM) (HIVLAI; [1]): Low nM
4 | COc1ccc(S(=O)(=O)N(CC(C)C)C[C@@H](O)[C@H](Cc2ccccc2)NC(=O)c2ccc(C)c(Nc3nccc(-c4cccnc4)n3)c2)cc1 [Compound 5a, N-((2S,3R)-3-hydroxy-4-((N-isobutyl-4-methoxyphenyl)sulfonamido)-1-phenylbutan-2-yl)-4-methyl-3-((4-(pyridin-3-yl)pyrimidin-2-yl)amino)benzamide] | 10.55 | 6.81 | – | enzyme inhibitory Ki (HIV-1 protease; text b193): 28 PM
5 | Cc1ccc(C(=O)N[C@@H](Cc2ccccc2)[C@H](O)CN(CC(C)C)S(=O)(=O)c2ccc(N)cc2)cc1Nc1nccc(-c2cccnc2)n1 [Compound 5b, N-((2S,3R)-4-((4-amino-N-isobutylphenyl)sulfonamido)-3-hydroxy-1-phenylbutan-2-yl)-4-methyl-3-((4-(pyridin-3-yl)pyrimidin-2-yl)amino)benzamide] | 9.77 | – | – | pIC50 (HIVLAI; antiviral, MT-2 cells exposed to HIVLAI, Table 1 and text, read-out: IC50): 7.18
6 | COc1ccc(S(=O)(=O)N(CC(C)C)C[C@@H](O)[C@H](Cc2cc(F)cc(F)c2)NC(=O)c2ccc(C)c(Nc3nccc(-c4cccnc4)n3)c2)cc1 [Compound 5c, N-((2S,3R)-1-(3,5-difluorophenyl)-3-hydroxy-4-((N-isobutyl-4-methoxyphenyl)sulfonamido)butan-2-yl)-4-methyl-3-((4-(pyridin-3-yl)pyrimidin-2-yl)amino)benzamide] | 9.24 | 6.91 | – | –
7 | Cc1ccc(C(=O)N[C@@H](Cc2cc(F)cc(F)c2)[C@H](O)CN(CC(C)C)S(=O)(=O)c2ccc(N)cc2)cc1Nc1nccc(-c2cccnc2)n1 [Compound 5d, N-((2S,3R)-4-((4-amino-N-isobutylphenyl)sulfonamido)-1-(3,5-difluorophenyl)-3-hydroxybutan-2-yl)-4-methyl-3-((4-(pyridin-3-yl)pyrimidin-2-yl)amino)benzamide] | 8.72 | 6.67 | – | reduction in antiviral activity (HIVLAI; over compound 5c): 3 fold
8 | COc1ccc(S(=O)(=O)N(CC(C)C)C[C@@H](O)[C@H](Cc2ccccc2)NC(=O)c2ccc(C)c(Nc3nc(-c4cccnc4)cs3)c2)cc1 [Compound 5e, N-((2S,3R)-3-hydroxy-4-((N-isobutyl-4-methoxyphenyl)sulfonamido)-1-phenylbutan-2-yl)-4-methyl-3-((4-(pyridin-3-yl)thiazol-2-yl)amino)benzamide] | 7.42 | 6.41 | – | –
9 | COc1ccc(S(=O)(=O)N(CC(C)C)C[C@@H](O)[C@H](Cc2ccccc2)NC(=O)c2cccc(Nc3nc(-c4cccnc4)cs3)c2C)cc1 [Compound 5f, N-((2S,3R)-3-hydroxy-4-((N-isobutyl-4-methoxyphenyl)sulfonamido)-1-phenylbutan-2-yl)-2-methyl-3-((4-(pyridin-3-yl)thiazol-2-yl)amino)benzamide] | 7.71 | < 6.00 | – | antiviral activity (in words) (HIVLAI; MT-2 cells exposed to HIVLAI): did not exhibit any appreciable antiviral activity
10 | COc1ccc(S(=O)(=O)N(CC(C)C)C[C@@H](O)[C@H](Cc2ccccc2)NC(=O)c2cc(C)cc(Nc3nc(-c4cccnc4)cs3)c2)cc1 [Compound 5g, N-((2S,3R)-3-hydroxy-4-((N-isobutyl-4-methoxyphenyl)sulfonamido)-1-phenylbutan-2-yl)-3-methyl-5-((4-(pyridin-3-yl)thiazol-2-yl)amino)benzamide] | 6.73 | < 6.00 | – | –
11 | COc1ccc(S(=O)(=O)N(CC(C)C)C[C@@H](O)[C@H](Cc2ccccc2)NC(=O)c2cc(Nc3nc(-c4cccnc4)cs3)ccc2C)cc1 [Compound 5h, N-((2S,3R)-3-hydroxy-4-((N-isobutyl-4-methoxyphenyl)sulfonamido)-1-phenylbutan-2-yl)-2-methyl-5-((4-(pyridin-3-yl)thiazol-2-yl)amino)benzamide] | 8.06 | 6.24 | – | –
12 | COc1ccc(S(=O)(=O)N(CC(C)C)C[C@@H](O)[C@H](Cc2ccccc2)NC(=O)c2ccc(C)c(Nc3nc(-c4cccnc4)cs3)c2C)cc1 [Compound 5i, N-((2S,3R)-3-hydroxy-4-((N-isobutyl-4-methoxyphenyl)sulfonamido)-1-phenylbutan-2-yl)-2,4-dimethyl-3-((4-(pyridin-3-yl)thiazol-2-yl)amino)benzamide] | – | 6.29 | – | –
13 | COc1ccc(S(=O)(=O)N(CC(C)C)C[C@@H](O)[C@H](Cc2ccccc2)NC(=O)c2ccc(C)c(Nc3nc(C)cs3)c2)cc1 [Compound 5j, N-((2S,3R)-3-hydroxy-4-((N-isobutyl-4-methoxyphenyl)sulfonamido)-1-phenylbutan-2-yl)-4-methyl-3-((4-methylthiazol-2-yl)amino)benzamide] | 7.59 and 7.58 | – | – | pIC50 (HIVLAI; Human immunodeficiency virus 1, MT2): < 6.00; antiviral activity (in words) (HIVLAI; MT-2 cells exposed to HIVLAI): did not show any appreciable antiviral activity
14 | COc1ccc(S(=O)(=O)N(CC(C)C)C[C@@H](O)[C@H](Cc2ccccc2)NC(=O)c2cccc(Nc3nc(C)cs3)c2C)cc1 [Compound 5k, N-((2S,3R)-3-hydroxy-4-((N-isobutyl-4-methoxyphenyl)sulfonamido)-1-phenylbutan-2-yl)-2-methyl-3-((4-methylthiazol-2-yl)amino)benzamide] | 7.14 | – | < 6.00 | –
15 | COc1ccc(S(=O)(=O)N(CC(C)C)C[C@@H](O)[C@H](Cc2ccccc2)NC(=O)c2cc(C)cc(Nc3nc(C)cs3)c2)cc1 [Compound 5l, N-((2S,3R)-3-hydroxy-4-((N-isobutyl-4-methoxyphenyl)sulfonamido)-1-phenylbutan-2-yl)-3-methyl-5-((4-methylthiazol-2-yl)amino)benzamide] | 7.10 | – | < 6.00 | –
16 | COc1ccc(S(=O)(=O)N(CC(C)C)C[C@@H](O)[C@H](Cc2ccccc2)NC(=O)c2cc(Nc3nc(C)cs3)ccc2C)cc1 [Compound 5m, N-((2S,3R)-3-hydroxy-4-((N-isobutyl-4-methoxyphenyl)sulfonamido)-1-phenylbutan-2-yl)-2-methyl-5-((4-methylthiazol-2-yl)amino)benzamide] | 7.12 | – | < 6.00 | –
17 | COc1ccc(S(=O)(=O)N(CC(C)C)C[C@@H](O)[C@H](Cc2ccccc2)NC(=O)c2ccc(C)c(Nc3nc(C(F)(F)F)cs3)c2)cc1 [Compound 5n, N-((2S,3R)-3-hydroxy-4-((N-isobutyl-4-methoxyphenyl)sulfonamido)-1-phenylbutan-2-yl)-4-methyl-3-((4-(trifluoromethyl)thiazol-2-yl)amino)benzamide] | 7.22 | – | < 6.00 | –
18 | COc1ccc(S(=O)(=O)N(CC(C)C)C[C@@H](O)[C@H](Cc2ccccc2)NC(=O)c2cccc(Nc3nc(C(F)(F)F)cs3)c2C)cc1 [Compound 5o, N-((2S,3R)-3-hydroxy-4-((N-isobutyl-4-methoxyphenyl)sulfonamido)-1-phenylbutan-2-yl)-2-methyl-3-((4-(trifluoromethyl)thiazol-2-yl)amino)benzamide] | 7.14 | – | < 6.00 | –
19 | COCc1csc(Nc2ccc(C)c(C(=O)N[C@@H](Cc3ccccc3)[C@H](O)CN(CC(C)C)S(=O)(=O)c3ccc(OC)cc3)c2)n1 [Compound 5p, N-((2S,3R)-3-hydroxy-4-((N-isobutyl-4-methoxyphenyl)sulfonamido)-1-phenylbutan-2-yl)-5-((4-(methoxymethyl)thiazol-2-yl)amino)-2-methylbenzamide] | 7.74 | 6.20 | 6.20 | –

From patent publication US20260272926A1, “HIV-1P ROTEASE INHIBITORS AND USES THEREOF” (Purdue Research Foundation, priority 2023, published 2026)
